Patent US20170320870A1 (Medical Research Council Technology, priority 2009, published 2017)

Experiments:
Assay in all cases: Kinase selectivity: percentage inhibition of each specific kinase at 1 μM inhibitor concentration
Assay type in all cases: biochemical
[1] = target: each specific kinase (kinase selectivity panel, Table 2) (Homo sapiens, UniProt Q06187); conditions: BTK
Description: (§1) Values are expressed as percentage inhibition of the each specific kinase at 1 μM inhibitor concentration.

[2] = target: each specific kinase (kinase selectivity panel, Table 2) (Homo sapiens, UniProt P23443); conditions: S6K1
Description: as §1

[3] = target: each specific kinase (kinase selectivity panel, Table 2) (Homo sapiens, UniProt P45984); conditions: JNK2
Description: as §1

[4] = target: each specific kinase (kinase selectivity panel, Table 2) (Homo sapiens, UniProt O00141); conditions: SGK1
Description: as §1

[5] = target: each specific kinase (kinase selectivity panel, Table 2) (Homo sapiens, UniProt P33981); conditions: TTK
Description: as §1

[6] = target: each specific kinase (kinase selectivity panel, Table 2) (Homo sapiens, UniProt P17252); conditions: PKCa
Description: as §1

[7] = target: each specific kinase (kinase selectivity panel, Table 2) (Homo sapiens, UniProt Q9HBH9); conditions: MNK2
Description: as §1

[8] = target: each specific kinase (kinase selectivity panel, Table 2) (Homo sapiens, UniProt Q9BUB5); conditions: MNK1
Description: as §1

[9] = target: each specific kinase (kinase selectivity panel, Table 2) (Homo sapiens, UniProt P53350); conditions: PLK1
Description: as §1

[10] = target: each specific kinase (kinase selectivity panel, Table 2) (Homo sapiens, UniProt P11362); conditions: FGF-R1
Description: as §1

[11] = target: each specific kinase (kinase selectivity panel, Table 2) (Homo sapiens, UniProt Q16584); conditions: MLK3
Description: as §1

[12] = target: each specific kinase (kinase selectivity panel, Table 2) (Homo sapiens, UniProt O75582); conditions: MSK1
Description: as §1

[13] = target: each specific kinase (kinase selectivity panel, Table 2) (Homo sapiens, UniProt O14920); conditions: IKKb
Description: as §1

[14] = target: each specific kinase (kinase selectivity panel, Table 2) (Homo sapiens, UniProt Q96RR4); conditions: CAMKKb
Description: as §1

[15] = target: each specific kinase (kinase selectivity panel, Table 2) (Homo sapiens, UniProt P17612); conditions: PKA
Description: as §1

[16] = target: each specific kinase (kinase selectivity panel, Table 2) (Homo sapiens, UniProt Q15303); conditions: HER4
Description: as §1

[17] = target: each specific kinase (kinase selectivity panel, Table 2) (Homo sapiens, UniProt Q05513); conditions: PKCz
Description: as §1

[18] = target: each specific kinase (kinase selectivity panel, Table 2) (Homo sapiens, UniProt P31749); conditions: PKBa
Description: as §1

[19] = target: each specific kinase (kinase selectivity panel, Table 2) (Homo sapiens, UniProt Q9NWZ3); conditions: IRAK4
Description: as §1

[20] = target: each specific kinase (kinase selectivity panel, Table 2) (Homo sapiens, UniProt Q14164); conditions: IKKe
Description: as §1

[21] = target: each specific kinase (kinase selectivity panel, Table 2) (Homo sapiens, UniProt O14757); conditions: CHK1
Description: as §1

[22] = target: each specific kinase (kinase selectivity panel, Table 2) (Homo sapiens, UniProt Q15746); conditions: SmMLCK
Description: as §1

[23] = target: each specific kinase (kinase selectivity panel, Table 2) (Homo sapiens, UniProt Q8IW41); conditions: PRAK
Description: as §1

[24] = target: each specific kinase (kinase selectivity panel, Table 2) (Homo sapiens, UniProt Q8N4C8); conditions: MINK1
Description: as §1

[25] = target: each specific kinase (kinase selectivity panel, Table 2) (Homo sapiens, UniProt O60285); conditions: NUAK1
Description: as §1

[26] = target: each specific kinase (kinase selectivity panel, Table 2) (Homo sapiens, UniProt O00418); conditions: EF2K
Description: as §1

[27] = target: each specific kinase (kinase selectivity panel, Table 2) (Homo sapiens, UniProt P68400); conditions: CK2
Description: as §1

[28] = target: each specific kinase (kinase selectivity panel, Table 2) (Homo sapiens, UniProt Q9H2X6); conditions: HIPK2
Description: as §1

[29] = target: each specific kinase (kinase selectivity panel, Table 2) (Homo sapiens, UniProt P43405); conditions: SYK
Description: as §1

[30] = target: each specific kinase (kinase selectivity panel, Table 2) (Homo sapiens, UniProt P31751); conditions: PKBb
Description: as §1

[31] = target: each specific kinase (kinase selectivity panel, Table 2) (Homo sapiens, UniProt P48730); conditions: CK1
Description: as §1

[32] = target: each specific kinase (kinase selectivity panel, Table 2) (Homo sapiens, UniProt Q9UHD2); conditions: TBK1
Description: as §1

[33] = target: each specific kinase (kinase selectivity panel, Table 2) (Homo sapiens, UniProt P28482); conditions: ERK2
Description: as §1

[34] = target: each specific kinase (kinase selectivity panel, Table 2) (Homo sapiens, UniProt Q15831); conditions: LKB1
Description: as §1

Chain of each specific kinase (kinase selectivity panel, Table 2) (Homo sapiens, UniProt Q8N4C8) (Q8N4C8 whole entry): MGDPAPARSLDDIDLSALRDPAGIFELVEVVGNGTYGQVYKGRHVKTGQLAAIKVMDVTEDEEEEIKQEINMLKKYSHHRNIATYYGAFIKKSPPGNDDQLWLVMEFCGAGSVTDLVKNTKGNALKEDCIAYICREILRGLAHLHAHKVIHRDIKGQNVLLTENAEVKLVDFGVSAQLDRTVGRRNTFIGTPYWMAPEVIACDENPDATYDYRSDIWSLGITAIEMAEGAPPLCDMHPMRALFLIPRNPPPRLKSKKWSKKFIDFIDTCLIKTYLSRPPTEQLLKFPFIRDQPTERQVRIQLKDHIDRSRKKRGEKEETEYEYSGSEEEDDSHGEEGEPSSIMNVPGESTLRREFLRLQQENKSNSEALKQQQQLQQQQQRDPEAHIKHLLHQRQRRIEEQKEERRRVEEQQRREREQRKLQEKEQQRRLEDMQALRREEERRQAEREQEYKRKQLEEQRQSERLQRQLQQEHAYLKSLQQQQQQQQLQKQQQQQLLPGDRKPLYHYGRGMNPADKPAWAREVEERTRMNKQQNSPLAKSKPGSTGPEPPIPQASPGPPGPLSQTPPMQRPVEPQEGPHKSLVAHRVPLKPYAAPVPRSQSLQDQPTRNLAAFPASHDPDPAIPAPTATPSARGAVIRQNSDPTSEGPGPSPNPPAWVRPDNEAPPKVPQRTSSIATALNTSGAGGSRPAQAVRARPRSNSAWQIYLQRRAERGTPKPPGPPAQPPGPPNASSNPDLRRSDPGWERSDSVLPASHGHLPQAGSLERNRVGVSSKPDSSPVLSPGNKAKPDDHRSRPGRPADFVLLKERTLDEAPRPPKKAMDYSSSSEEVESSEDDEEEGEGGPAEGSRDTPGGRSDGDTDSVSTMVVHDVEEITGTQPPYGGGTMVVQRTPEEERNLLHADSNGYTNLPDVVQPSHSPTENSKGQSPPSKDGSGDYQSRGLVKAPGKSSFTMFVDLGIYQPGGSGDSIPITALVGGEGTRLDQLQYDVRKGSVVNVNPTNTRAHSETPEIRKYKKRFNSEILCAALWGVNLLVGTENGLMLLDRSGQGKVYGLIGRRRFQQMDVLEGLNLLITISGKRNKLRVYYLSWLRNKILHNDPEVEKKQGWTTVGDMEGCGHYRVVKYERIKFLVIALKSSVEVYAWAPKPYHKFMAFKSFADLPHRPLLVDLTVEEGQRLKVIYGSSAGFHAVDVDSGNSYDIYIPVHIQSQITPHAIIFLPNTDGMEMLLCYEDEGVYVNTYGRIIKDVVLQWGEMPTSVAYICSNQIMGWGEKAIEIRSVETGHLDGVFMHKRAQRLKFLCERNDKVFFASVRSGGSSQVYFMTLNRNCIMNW
Chain of each specific kinase (kinase selectivity panel, Table 2) (Homo sapiens, UniProt P11362) (P11362 22-822): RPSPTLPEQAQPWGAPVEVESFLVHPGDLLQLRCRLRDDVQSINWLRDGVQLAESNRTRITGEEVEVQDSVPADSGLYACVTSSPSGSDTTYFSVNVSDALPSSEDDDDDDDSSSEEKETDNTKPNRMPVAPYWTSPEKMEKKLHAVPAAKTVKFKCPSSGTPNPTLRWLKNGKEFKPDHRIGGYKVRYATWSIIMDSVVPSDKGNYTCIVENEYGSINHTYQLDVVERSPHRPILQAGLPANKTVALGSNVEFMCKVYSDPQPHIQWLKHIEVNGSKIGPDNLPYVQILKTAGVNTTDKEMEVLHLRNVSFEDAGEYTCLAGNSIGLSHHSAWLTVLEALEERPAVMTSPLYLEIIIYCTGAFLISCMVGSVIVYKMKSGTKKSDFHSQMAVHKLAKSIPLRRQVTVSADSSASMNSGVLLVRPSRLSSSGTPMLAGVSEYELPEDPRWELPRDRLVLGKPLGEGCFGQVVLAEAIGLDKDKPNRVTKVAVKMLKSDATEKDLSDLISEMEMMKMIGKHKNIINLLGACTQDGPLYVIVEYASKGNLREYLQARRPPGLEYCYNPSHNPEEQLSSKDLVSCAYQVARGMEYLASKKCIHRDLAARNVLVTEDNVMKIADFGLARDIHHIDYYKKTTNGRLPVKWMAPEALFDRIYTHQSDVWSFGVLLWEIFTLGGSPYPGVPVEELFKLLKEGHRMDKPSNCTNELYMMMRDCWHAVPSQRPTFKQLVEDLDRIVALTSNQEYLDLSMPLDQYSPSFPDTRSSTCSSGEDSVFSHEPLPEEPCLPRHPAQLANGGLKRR
Chain of each specific kinase (kinase selectivity panel, Table 2) (Homo sapiens, UniProt Q06187) (Q06187 whole entry): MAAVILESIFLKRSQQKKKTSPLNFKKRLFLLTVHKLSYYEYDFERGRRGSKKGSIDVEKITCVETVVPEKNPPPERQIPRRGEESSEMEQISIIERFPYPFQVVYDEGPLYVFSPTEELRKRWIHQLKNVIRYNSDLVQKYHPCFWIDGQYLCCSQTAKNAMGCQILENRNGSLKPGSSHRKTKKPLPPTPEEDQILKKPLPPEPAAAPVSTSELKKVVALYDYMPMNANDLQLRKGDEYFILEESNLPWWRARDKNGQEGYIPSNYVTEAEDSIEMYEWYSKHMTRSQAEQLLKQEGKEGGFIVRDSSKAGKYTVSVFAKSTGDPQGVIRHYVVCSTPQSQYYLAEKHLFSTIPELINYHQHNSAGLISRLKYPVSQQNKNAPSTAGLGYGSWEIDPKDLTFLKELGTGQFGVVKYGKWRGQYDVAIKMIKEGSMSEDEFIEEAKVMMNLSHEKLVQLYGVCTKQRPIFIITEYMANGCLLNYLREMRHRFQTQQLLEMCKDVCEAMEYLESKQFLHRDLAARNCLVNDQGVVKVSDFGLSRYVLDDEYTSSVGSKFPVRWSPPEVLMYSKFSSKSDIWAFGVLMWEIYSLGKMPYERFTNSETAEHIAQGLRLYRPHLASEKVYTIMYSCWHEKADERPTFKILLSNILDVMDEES
Chain of each specific kinase (kinase selectivity panel, Table 2) (Homo sapiens, UniProt Q96RR4) (Q96RR4 whole entry): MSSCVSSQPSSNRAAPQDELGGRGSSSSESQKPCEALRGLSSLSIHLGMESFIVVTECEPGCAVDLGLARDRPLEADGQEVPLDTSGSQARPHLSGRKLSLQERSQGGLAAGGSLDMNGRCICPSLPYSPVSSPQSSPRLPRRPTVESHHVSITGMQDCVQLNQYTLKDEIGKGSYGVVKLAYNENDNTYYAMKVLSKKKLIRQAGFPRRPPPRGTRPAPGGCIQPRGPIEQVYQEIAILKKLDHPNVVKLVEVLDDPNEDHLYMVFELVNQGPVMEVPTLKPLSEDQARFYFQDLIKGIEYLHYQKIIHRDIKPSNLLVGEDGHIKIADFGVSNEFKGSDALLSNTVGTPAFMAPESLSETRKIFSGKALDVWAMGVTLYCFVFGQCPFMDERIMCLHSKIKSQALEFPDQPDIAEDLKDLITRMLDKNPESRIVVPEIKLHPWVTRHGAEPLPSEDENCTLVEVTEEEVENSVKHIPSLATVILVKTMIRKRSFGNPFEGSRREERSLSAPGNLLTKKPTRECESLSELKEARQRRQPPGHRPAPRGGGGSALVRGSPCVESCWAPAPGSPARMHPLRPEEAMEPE
Chain of each specific kinase (kinase selectivity panel, Table 2) (Homo sapiens, UniProt P68400) (P68400 whole entry): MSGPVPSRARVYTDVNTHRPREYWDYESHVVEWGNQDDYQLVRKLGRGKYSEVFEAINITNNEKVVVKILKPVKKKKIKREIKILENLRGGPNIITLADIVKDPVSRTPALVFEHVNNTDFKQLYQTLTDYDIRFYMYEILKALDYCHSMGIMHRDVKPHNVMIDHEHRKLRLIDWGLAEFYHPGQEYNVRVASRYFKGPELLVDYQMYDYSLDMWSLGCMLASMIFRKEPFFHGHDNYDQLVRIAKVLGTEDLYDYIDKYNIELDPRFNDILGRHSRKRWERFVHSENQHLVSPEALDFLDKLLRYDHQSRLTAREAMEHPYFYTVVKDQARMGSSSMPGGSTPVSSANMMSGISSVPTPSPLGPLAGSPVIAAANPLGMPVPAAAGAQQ
Chain of each specific kinase (kinase selectivity panel, Table 2) (Homo sapiens, UniProt P45984) (P45984 whole entry): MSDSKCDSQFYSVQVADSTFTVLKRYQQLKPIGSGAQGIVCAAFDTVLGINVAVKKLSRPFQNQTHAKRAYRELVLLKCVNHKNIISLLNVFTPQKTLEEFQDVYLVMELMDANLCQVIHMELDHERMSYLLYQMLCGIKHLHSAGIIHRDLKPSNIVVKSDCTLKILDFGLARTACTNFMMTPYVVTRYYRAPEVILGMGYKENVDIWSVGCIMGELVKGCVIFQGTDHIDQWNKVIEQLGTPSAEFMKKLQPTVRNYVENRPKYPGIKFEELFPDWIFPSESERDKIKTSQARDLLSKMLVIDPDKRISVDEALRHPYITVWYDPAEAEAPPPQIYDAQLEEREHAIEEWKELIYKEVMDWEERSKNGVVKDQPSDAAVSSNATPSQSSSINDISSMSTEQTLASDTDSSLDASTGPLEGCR
Chain of each specific kinase (kinase selectivity panel, Table 2) (Homo sapiens, UniProt P28482) (P28482 whole entry): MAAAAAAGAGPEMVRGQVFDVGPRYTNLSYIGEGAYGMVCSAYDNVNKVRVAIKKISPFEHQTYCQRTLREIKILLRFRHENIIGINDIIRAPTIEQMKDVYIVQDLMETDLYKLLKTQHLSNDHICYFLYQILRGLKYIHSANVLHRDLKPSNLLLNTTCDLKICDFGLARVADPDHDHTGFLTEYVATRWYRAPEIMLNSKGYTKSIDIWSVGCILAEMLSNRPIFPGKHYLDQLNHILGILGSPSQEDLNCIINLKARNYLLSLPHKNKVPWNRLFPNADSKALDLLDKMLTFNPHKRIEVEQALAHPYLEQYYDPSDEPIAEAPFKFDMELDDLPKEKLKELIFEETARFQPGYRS
Chain of each specific kinase (kinase selectivity panel, Table 2) (Homo sapiens, UniProt O14757) (O14757 whole entry): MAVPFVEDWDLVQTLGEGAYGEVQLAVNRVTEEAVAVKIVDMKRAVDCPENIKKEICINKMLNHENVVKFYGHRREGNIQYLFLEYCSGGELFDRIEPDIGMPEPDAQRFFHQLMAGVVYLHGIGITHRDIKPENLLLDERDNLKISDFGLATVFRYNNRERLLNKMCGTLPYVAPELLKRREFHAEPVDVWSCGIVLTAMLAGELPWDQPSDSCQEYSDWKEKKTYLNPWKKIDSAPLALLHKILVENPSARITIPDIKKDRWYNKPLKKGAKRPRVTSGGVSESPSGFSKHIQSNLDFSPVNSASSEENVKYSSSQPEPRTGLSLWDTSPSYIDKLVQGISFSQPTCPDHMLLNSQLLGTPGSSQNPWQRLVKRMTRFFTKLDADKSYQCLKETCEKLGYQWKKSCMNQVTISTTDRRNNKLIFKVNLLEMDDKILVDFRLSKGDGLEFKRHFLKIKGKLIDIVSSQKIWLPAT

Structure (SMILES): O=C(CCc1n[nH]c2ccnc(NC3CCCCC3)c12)N1CCC[C@H](c2ccccc2)C1 [Example 172, 3-(4-Cyclohexylamino-1H-pyrazolo[4,3-c]pyridin-3-yl)-1-((R)-3-phenyl-piperidin-1-yl)-propan-1-one]
- percentage inhibition of BTK [1]: 12 percentage
- percentage inhibition of S6K1 [2]: 14 percentage
- percentage inhibition of JNK2 [3]: 22 percentage
- percentage inhibition of SGK1 [4]: 1 percentage
- percentage inhibition of TTK [5]: 14 percentage
- percentage inhibition of PKCa [6]: 0 percentage
- percentage inhibition of MNK2 [7]: 0 percentage
- percentage inhibition of MNK1 [8]: 0 percentage
- percentage inhibition of PLK1 [9]: 3 percentage
- percentage inhibition of FGF-R1 [10]: 0 percentage
- percentage inhibition of MLK3 [11]: 29 percentage
- percentage inhibition of MSK1 [12]: 1 percentage
- percentage inhibition of IKKb [13]: 22 percentage
- percentage inhibition of CAMKKb [14]: 21 percentage
- percentage inhibition of PKA [15]: 5 percentage
- percentage inhibition of HER4 [16]: 10 percentage
- percentage inhibition of PKCz [17]: 10 percentage
- percentage inhibition of PKBa [18]: 0 percentage
- percentage inhibition of IRAK4 [19]: 0 percentage
- percentage inhibition of IKKe [20]: 17 percentage
- percentage inhibition of CHK1 [21]: 0 percentage
- percentage inhibition of SmMLCK [22]: 18 percentage
- percentage inhibition of PRAK [23]: 0 percentage
- percentage inhibition of MINK1 [24]: 18 percentage
- percentage inhibition of NUAK1 [25]: 14 percentage
- percentage inhibition of EF2K [26]: 0 percentage
- percentage inhibition of CK2 [27]: 3 percentage
- percentage inhibition of HIPK2 [28]: 0 percentage
- percentage inhibition of SYK [29]: 4 percentage
- percentage inhibition of PKBb [30]: 0 percentage
- percentage inhibition of CK1 [31]: 6 percentage
- percentage inhibition of TBK1 [32]: 14 percentage
- percentage inhibition of ERK2 [33]: 9 percentage
- percentage inhibition of LKB1 [34]: 8 percentage

Structure (SMILES): CC[C@H](C)Oc1nccc2[nH]nc(C)c12 [Example 121, 4-((S)-sec-Butoxy)-3-methyl-1H-pyrazolo[4,3-c]pyridine]
- percentage inhibition of BTK [1]: 0 percentage
- percentage inhibition of S6K1 [2]: 0 percentage
- percentage inhibition of JNK2 [3]: 0 percentage
- percentage inhibition of SGK1 [4]: 23 percentage
- percentage inhibition of TTK [5]: 30 percentage
- percentage inhibition of PKCa [6]: 2 percentage
- percentage inhibition of MNK2 [7]: 7 percentage
- percentage inhibition of MNK1 [8]: 1 percentage
- percentage inhibition of PLK1 [9]: 19 percentage
- percentage inhibition of FGF-R1 [10]: 36 percentage
- percentage inhibition of MLK3 [11]: 23 percentage
- percentage inhibition of MSK1 [12]: 48 percentage
- percentage inhibition of IKKb [13]: 15 percentage
- percentage inhibition of CAMKKb [14]: 12 percentage
- percentage inhibition of PKA [15]: 26 percentage
- percentage inhibition of HER4 [16]: 0 percentage
- percentage inhibition of PKCz [17]: 0 percentage
- percentage inhibition of PKBa [18]: 19 percentage
- percentage inhibition of IRAK4 [19]: 12 percentage
- percentage inhibition of IKKe [20]: 19 percentage
- percentage inhibition of CHK1 [21]: 10 percentage
- percentage inhibition of SmMLCK [22]: 22 percentage
- percentage inhibition of PRAK [23]: 0 percentage
- percentage inhibition of MINK1 [24]: 17 percentage
- percentage inhibition of NUAK1 [25]: 59 percentage
- percentage inhibition of EF2K [26]: 0 percentage
- percentage inhibition of CK2 [27]: 0 percentage
- percentage inhibition of HIPK2 [28]: 0 percentage
- percentage inhibition of SYK [29]: 0 percentage
- percentage inhibition of PKBb [30]: 3 percentage
- percentage inhibition of CK1 [31]: 31 percentage
- percentage inhibition of TBK1 [32]: 6 percentage
- percentage inhibition of ERK2 [33]: 0 percentage
- percentage inhibition of LKB1 [34]: 42 percentage
